Test results taken from ChEMBL document CHEMBL5528074 (J Med Chem, 2024).

Legend:
[1] = target: T1, G-protein coupled receptor 183 (Homo sapiens, UniProt P32249)
Description: Antagonist activity at GPR183 (unknown origin) transfected in HEK293 cells incubated for 30 mins by Glosensor cAMP assay

[2] = target: T1, G-protein coupled receptor 183; test: Agonist activity at GPR183 (unknown origin) transfected in HEK293 cells assessed as reduction in forskolin induced cAMP generation incubated for 30 mins by Glosensor cAMP assay; assay type: functional, cell-based
[3] = target: T1, G-protein coupled receptor 183; test: Agonist activity at GPR183 (unknown origin) transfected in HEK293 cells cotransfected with CRE-luciferase plasmid assessed as impairment of forskolin induced luciferase activity preincubated for 30 mins followed by forskolin induction and measured after 4 hrs by dual luciferase assay; assay type: functional, cell-based
[4] = target: T1, G-protein coupled receptor 183; test: Agonist activity at GPR183 (unknown origin) transfected in HEK293 cells co-expressing LgBiT-fused SmBiT-beta-arrestin assessed as beta-arrestin recruitment using nanoluciferase as substrate incubated for 30 mins by bioluminescence based NanoBiT assay; assay type: functional, cell-based
[5] = Metabolic stability in mouse liver microsomes assessed as intrinsic clearance; assay type: ADME, Microsome; conditions: read-out: CLH

T1 sequence (P32249 whole entry): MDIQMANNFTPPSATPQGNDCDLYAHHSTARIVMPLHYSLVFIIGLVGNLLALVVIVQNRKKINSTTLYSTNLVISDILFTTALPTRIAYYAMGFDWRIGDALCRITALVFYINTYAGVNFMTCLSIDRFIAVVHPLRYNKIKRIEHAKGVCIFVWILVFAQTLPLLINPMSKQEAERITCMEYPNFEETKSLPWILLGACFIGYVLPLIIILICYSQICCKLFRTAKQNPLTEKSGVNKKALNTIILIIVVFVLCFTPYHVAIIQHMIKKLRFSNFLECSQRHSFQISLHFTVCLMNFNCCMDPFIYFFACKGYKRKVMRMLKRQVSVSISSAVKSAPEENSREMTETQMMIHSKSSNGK

IC50 [1] [nM]	Compound	further results
7.61	Cc1cc2ccc(C(=O)N3CCN(C(=O)/C=C/c4ccc(Br)cc4)CC3)cc2[nH]1	
> 10000	COc1ccc(C(=O)NC23CC(NC(=O)/C=C/c4ccc(Br)cc4)(C2)C3)cc1	
7.9	Cn1ccc2ccc(C(=O)N3CCN(C(=O)/C=C/c4ccc(Br)cc4)CC3)cc21	
19.7	COc1ccc(NC(=O)CC2CCN(C(=O)/C=C/c3ccc(Br)cc3)CC2)cc1	
6.23	CNc1nc2ccc(C(=O)N3CCN(C(=O)/C=C/c4ccc(Br)cc4)CC3)cc2s1	

The remaining lines, values behind:

Compound	IC50 [1] [nM]	further results
Nc1nc2ccc(C(=O)N3CCN(C(=O)/C=C/c4ccc(Cl)cc4)CC3)cc2s1	15.9	
Nc1nc2ccc(C(=O)N3CCN(C(=O)/C=C/c4ccc(C(F)(F)F)cc4)CC3)cc2s1	30.1	
C[C@H](CCCC(C)(C)O)[C@H]1CCC2C3C(CC[C@@]21C)[C@@]1(C)CC[C@H](O)CC1=C[C@H]3O (some centres not stated)		EC50 [2]: 0.15 nM; EC50 [3]: 3.22 nM; Activity ([3]; filed as agonist, time 4.5 hrs): Dose-Dependent Effect; EC50 [4]: 4.63 nM
O=C(COc1ccc2ccccc2c1)N1CCN(C(=O)Cc2ccccc2)CC1		microsomal CLint [5]: 301 µL/min/mg
